# Results from patent US6534277B1, “Method for identifying a compound to be tested for an ability to reduce immune rejection by determining Stat4 and Stat6 proteins” (Millennium Pharmaceuticals, Inc., priority 2000, dated 2003).
# Entries after “also recorded” stand apart in the source; their conditions may differ.
# Assays:
# [1] = system: CD154 expression by CD3 mAb-activated CD4+ splenic T cells; assay: Activation-induced CD154 expression by CD4+ T cells, dual color flow cytometry; format: cell-based, mouse; conditions: 7 hr, plate-bound CD3 mAb; for effect on activation-induced CD154 expression, in words: drug concentrations as b343 (10 μM lactacystin, 10 μM MG-273); for suppression (inhibition) of activation-induced CD154 expression: 125 ng/ml cyclosporin A, 20 ng/ml rapamycin, 100 μg/ml methylprednisolone, 1 μM mycophenolate mofetil, three experiments
# Protocol: Six-well plates (Costar) were pre-coated overnight with 1 μg/ml of […] anti-mouse CD3 mAb (2C11). After washing with media (RPMI supplemented with 10% fetal bovine serum, 50 U/ml penicillin, 50 μg/ml streptomycin, 2 mM glutamine and 50 μM 2-mercaptoethanol) one ml of media containing 2× final drug concentration was added to each well. After testing of a range of concentrations of each agent, the optimal final physiologic drug concentrations for the data to be reported were 125 ng/ml cyclosporin A, 20 ng/ml rapamycin. 100 μg/ml methylprednisolone, 1 μM mycophenolate mofetil, 10 μm lactacystin and 10 μM MG-273. Cells were obtained from mechanically disrupted spleens and, after collection by centrifugation and washing once with media, one ml aliquots containing two million viable splenocytes were added to each well. Cultures were incubated at 37° C. in 5% CO2 for 7 hr. and were then diluted two-fold with chilled media containing 0.1% sodium azide (FACS media). Cells were collected by centrifugation at 4° C., resuspended in FACS media containing 1 μg Fc Block (PharMingen) and incubated on ice for 15 min. Samples were then split and either a mixture of 1 μg each of FITC-conjugated CD4-specific mAb and PE-conjugated control hamster IgG mAb or FITC-conjugated CD4-specific mAb and PE-conjugated CD154-specific mAb were added. After a 30 min incubation on ice, cells were washed twice and analyzed on a Becton Dickinson FACScan using Cell Quest software. Viable CD4+ lymphocytes were gated using a combination of forward/side scatter and CD4 staining.
# [2] = system: BALB/c cardiac allograft in B6/129 wild-type mice; assay: Heterotopic cardiac allograft survival, BALB/c donors into B6/129 wild-type recipients; format: in vivo, mouse; conditions: with CD154 mAb/DST, rapamycin 0.2 mg/kg/d i.p., cyclosporin A 10 mg/kg/d i.p., methylprednisolone 1 mg/kg i.p., PS-519 1 mg/kg/d i.p., p<0.001
# Protocol: Heterotopic cardiac allografting was performed with anastomoses to the abdominal aorta and vena cava (Hancock et al., 1998, Nature Medicine 4:1392-1396), using BALB/c donors and B6/129 wild-type or […] mice as recipients. Recipients were treated with hamster IgG or hamster anti-mouse (CD40L mAb; 250 μg, administered intravenously) plus DST (5×10^6 splenic mononuclear cells) at the time of transplantation (Hancock et al., 1998, Nature Medicine 4:1392-1396).
# Heterotopic cardiac allografting was performed with anastomoses to the abdominal aorta and vena cava (Hancock, W. W. et al., 1998, Nature Medicine 4:1392-1396), using BALB/c donors and B6/129 wild-type or NF-κB/p50 KO mice as recipients (n=6/group). Recipients were treated with hamster IgG or hamster anti-mouse CD154 mAb (250 μg, i.v.) plus DST (“donor specific transfusion”; 5×10^6 splenic mononuclear cells) at the time of transplantation (Hancock, W. W. et al., 1998, Nature Medicine 4:1392-1396). […] Graft survival was monitored by daily palpation, and rejection was confirmed by laparotomy and histologic evaluation.
# Heterotopic cardiac allografting was performed with anastomoses to the abdominal aorta and vena cava, using BALB/c donors and B6/129 wild-type or Stat-6 KO mice as recipients (n=6/group). […] Graft survival was monitored by daily palpation and rejection was confirmed by laparotomy and histologic evaluation.
Compound,"effect on activation-induced CD154 expression, in words [1]",effect of concomitant agent on the effects (efficacy) of CD154 mAb therapy on allograft survival ([2]; listed as lactacystin-derived (LC) proteasome inhibitor),effect of concomitant agent on the effects (efficacy) of CD154 mAb therapy on allograft survival ([2]; listed as proteasome inhibitor),suppression (inhibition) of activation-induced CD154 expression [1]
CC(C)C[C@H](NC(=O)[C@H](Cc1cccc2ccccc12)NC(=O)N1CCOCC1)B(O)O [MG-273],significantly decreased; also recorded: significantly blocked,,,
CCC[C@H]1C(=O)N[C@@]2([C@@H](O)C(C)C)C(=O)O[C@@H]12 [PS-519],,significantly impaired,blocked,
"C[C@H]1C[C@@H]2[C@H]([C@@H](O)C[C@@]3(C)[C@H]2CC[C@]3(O)C(=O)CO)[C@@]2(C)C=CC(=O)C=C12 [methylprednisolone, 6α-methylprednisolone]",,,,> 90%
COc1c(C)c2c(c(O)c1C/C=C(\C)CCC(=O)OCCN1CCOCC1)C(=O)OC2 [mycophenolate mofetil],complete lack of effect,,,< 10%
CO[C@H]1C[C@@H]2CC[C@@H](C)[C@@](O)(O2)C(=O)C(=O)N2CCCC[C@H]2C(=O)O[C@H]([C@H](C)C[C@@H]2CC[C@@H](O)[C@H](OC)C2)CC(=O)[C@H](C)/C=C(\C)[C@@H](O)[C@@H](OC)C(=O)[C@H](C)C[C@H](C)/C=C/C=C/C=C/1C [rapamycin],,,,< 20%
